Holding throughout (assay type): physicochemical
A short description of data set [1]: API and excipients compatibility study (10 days of stress testing of mixed powders).
Data set [2] in a line: Accelerated stability test, detection of impurity A and total impurity by HPLC. The following applies: active ingredient alone, accelerated stability test at 40° C. for 6 months. From the text:
The method for detecting impurity A and total impurity was shown as follows:
Equipment: Agilent 1260 series;
Column: XBridge Shield RP18 column (100×4.6 mm, 3.5 μm);
Mobile phase A: 0.05 mol/L potassium dihydrogen phosphate solution (adjusted to pH 7.2 with sodium hydroxide solution)-acetonitrile (20:80);
Mobile phase B: 0.05 mol/L potassium dihydrogen phosphate solution (adjusted to pH 7.2 with sodium hydroxide solution)-acetonitrile (40:60);
Detection wavelength: 247 nm;
Column temperature: 30° C.;
Solvent: acetonitrile-water (50:50).

Data set [3] is described as follows: Risk assessment of the API and excipients compatibility. From the text: Level 1 (low risk): maximum single impurity is less than 0.1% and total impurity is less than 0.2%;
Level 2 (medium risk): maximum single impurity is 0.1-0.2% or total impurity is 0.2%-0.4%;
Level 3 (high risk): maximum single impurity is more than 0.2% or total impurity is more than 0.4%.

Setting [4] is: Day 10, Illumination (4500 ± 5001x).

On to `CCOc1cc2ncnc(Nc3ccc(F)c(Cl)c3)c2cc1NC(=O)/C=C/CN(C)C` [API, (E)-N-(4-((3-chloro-4-fluorophenyl)amino)-7-ethoxyquinazolin-6-yl)-4-(dimethylamino)but-2-enamide], for which the “Maximum single impurity (%)” value came to 0.02% in data set [1] (Day 0); 0.02% in data set [1] (Day 10, 60° C. ± 2° C.); 0.12% in data set [1] (setting [4]); 0.02% in data set [1] (Day 10, RH75% ± 5%); 0.02% in data set [1] (Day 10, RH92.5% ± 5%). Besides, the “Total impurity (%)” value was 0.02% in data set [1] (Day 0); 0.04% in data set [1] (Day 10, 60° C. ± 2° C.); 0.14% in data set [1] (setting [4]); 0.02% in data set [1] (Day 10, RH75% ± 5%); 0.02% in data set [1] (Day 10, RH92.5% ± 5%). The “change in the content of impurities in the active ingredient” value in data set [2] is “no significant change”. Also, the “Risk level assessment value 60° C.” value in data set [3] (60° C., 10 days stress testing) is 1 (Level 1 (low risk): maximum single impurity is less than 0.1% and total impurity is less than 0.2%). Moreover, the “Risk level assessment value Illumination” value in data set [3] (Illumination, 10 days stress testing) is 2 (Level 2 (medium risk): maximum single impurity is 0.1-0.2% or total impurity is 0.2%-0.4%). Further, in data set [3] (RH75%, 10 days stress testing), the “Risk level assessment value RH75%” value was 1 (Level 1 (low risk): maximum single impurity is less than 0.1% and total impurity is less than 0.2%). Besides, the “Risk level assessment value RH92.5%” value in data set [3] (RH92.5%, 10 days stress testing) is 1 (Level 1 (low risk): maximum single impurity is less than 0.1% and total impurity is less than 0.2%). Also, in data set [3] (sum over RH75%, RH92.5%, 60° C., Illumination), the “Risk level assessment value Total” value is 5.

(Values after patent US20190224201A1, “PHARMACEUTICAL COMPOSITION COMPRISING NEPTINIB OR SALT THEREOF AND METHOD FOR CONTROLLING IMPURITY THEREOF” (SHENZHEN NEPTUNUS PHARMACEUTICAL RESEARCH INSTITUTE CO., …, priority 2016, published 2019).)
